# Results published in patent publication US20240287172A1, “PROTEIN BINDERS TO IRHOM2 EPITOPES” (SCIRHOM GMBH, priority 2019, published 2024).
# Legend:
# [1] = system: PMA-induced release of endogenous IL-6R from human THP-1 monocytic cells; assay: ELISA-based IL-6R release assay, PMA-induced, THP-1 cells; type: cell-based; settings: PMA 25 ng/ml, 1 hour, recombinant murine antibodies and IgG at 1 μg/ml, Batimastat at 10 μM
# Method: (§1) In brief, on day 1, Nunc black MaxiSorp® 96-well plates (Thermo Fisher Scientific, USA) were coated for 7 hours with 100 μl per well of mouse anti-human IL-6R capture antibody (provided as part of the DuoSet ELISA kit) at 2 μg/ml TBS at room temperature. Capture antibody solution was removed and MaxiSorp® plates were blocked with 300 μl per well of TBS, 1% BSA at room temperature for 1.5 hours. Meanwhile, 40,000 THP-1 (American Type Culture Collection, USA) cells in 80 μl of normal growth medium were seeded in each well of Greiner CELLSTAR V-bottom 96-well plates (Thermo Fisher Scientific, USA) and pre-incubated with 20 μl per well of standard growth medium supplemented with Batimastat (BB94, Abcam, UK) at 50 μM as positive control (for a final concentration of 10 μM in the resulting 100 μl sample volume), mouse IgG antibody (Thermo Fisher Scientific, USA) at 5 μg/ml as isotype control (for a final concentration of 1 μg/ml in the resulting 100 μl sample volume) or antibodies of the invention at 5 μg/ml (for a final concentration of 1 μg/ml in the resulting 100 μl sample volume) at 37° C., 5% CO2 for 30 minutes. […] Using an infinite M1000 (Tecan Group, Switzerland) microplate reader, the fluorescence of each well was collected at an excitation wavelength of 435 nm and an emission wavelength of 555 nm.
# [2] = system: PMA-induced release of endogenous HB-EGF from PBMCs from healthy donors; assay: ELISA-based HB-EGF release assay, PMA-induced, PBMCs from healthy donors; type: cell-based; settings: Homo sapiens, PBMC; PMA 25 ng/ml, 6 hours; recombinant murine antibodies and IgG at 1 μg/ml; Batimastat at 10 μM
# Method: as §1, with “coated overnight” for “coated for 7 hours”, “anti-human HB-EGF” for “anti-human IL-6R”, “at 4” for “at 2”, “at 4° C. On day 2, the capture” for “at room temperature. Capture”, “for 3” for “for 1.5”, “Meanwhile, 80,000 PBMC from healthy donors (STEMCELL Technologies, Canada)” for “Meanwhile, 40,000 THP-1 (American Type Culture Collection, USA)”
smiles,measurement,setting,value
CNC(=O)[C@H](Cc1ccccc1)NC(=O)[C@H](CC(C)C)[C@H](CSc1cccs1)C(=O)NO [Batimastat],inhibition at 10 µM,[1],88.6%
same,inhibition at 10 µM,[2],94.9%
